11 molecules from patent publication US20250115597A1, “TYK2 INHIBITORS AND COMPOSITIONS AND METHODS THEREOF” (LYNK PHARMACEUTICALS CO. LTD., priority 2021, published 2025) can be followed below.

Read-outs that look alike come from different tables or passages of the source.

One data set has as its target T1, Ba/F3-TEL-JAK2 cells (Homo sapiens, UniProt O60674).
T1 construct: fused on or other part: Dimerization domain of TEL (ETV6) fused to the JAK2 kinase domain; P41212 (Transcription factor ETV6)
As to the kind of experiment: Anti-proliferative assay, Ba/F3-TEL-JAK2 cells (Cell-Titer Glo). The data set is classed as cell-based. The settings on record: 72 h, read-out: BaF3-TEL-JAK2 IC50. How it is done:
(§1) Anti-Proliferative Assay Dimerization domain of Tel protein fused with JAK kinase domain was permanently transduced into Ba/F3 cells, whose proliferation is dependent on JAK activity in the absence of IL-3 induction. These engineered Ba/F3 cells (Ba/F3-FL-TYK2-[…], Ba/F3-TEL-TYK2 and Ba/F3-TEL-JAK2) were used to monitor JAK inhibitory activities of the compounds in the cellular. […] Cells were seeded at 2000/well of white flat bottom 96-well plates. The well containing medium only was used as background control. After 24 h growth, cells were treated with compounds. The test compounds were dissolved in DMSO to a stock concentration of 20 mM. 3-fold serially diluted compounds for 9 concentrations with top concentration of 20 μM was added into the each well. […] The cells continued to grow at 37° C. in 5% CO2 for 72 h after compound treatment. The viability was measured by cellular ATP determination using the Cell-Titer Glo luciferase reagent (Promega). The Luminescence value was recorded by a multi-label reader Envision (PerkinElmer).

In the next data set the target is T2, Ba/F3-TEL-TYK2 cells (Homo sapiens, UniProt P29597).
T2 construct: fused on or other part: Dimerization domain of TEL (ETV6) fused to the TYK2 kinase domain; P41212 (Transcription factor ETV6)
T2 sequence (P29597 whole entry, change not shown, the tested form may be a part): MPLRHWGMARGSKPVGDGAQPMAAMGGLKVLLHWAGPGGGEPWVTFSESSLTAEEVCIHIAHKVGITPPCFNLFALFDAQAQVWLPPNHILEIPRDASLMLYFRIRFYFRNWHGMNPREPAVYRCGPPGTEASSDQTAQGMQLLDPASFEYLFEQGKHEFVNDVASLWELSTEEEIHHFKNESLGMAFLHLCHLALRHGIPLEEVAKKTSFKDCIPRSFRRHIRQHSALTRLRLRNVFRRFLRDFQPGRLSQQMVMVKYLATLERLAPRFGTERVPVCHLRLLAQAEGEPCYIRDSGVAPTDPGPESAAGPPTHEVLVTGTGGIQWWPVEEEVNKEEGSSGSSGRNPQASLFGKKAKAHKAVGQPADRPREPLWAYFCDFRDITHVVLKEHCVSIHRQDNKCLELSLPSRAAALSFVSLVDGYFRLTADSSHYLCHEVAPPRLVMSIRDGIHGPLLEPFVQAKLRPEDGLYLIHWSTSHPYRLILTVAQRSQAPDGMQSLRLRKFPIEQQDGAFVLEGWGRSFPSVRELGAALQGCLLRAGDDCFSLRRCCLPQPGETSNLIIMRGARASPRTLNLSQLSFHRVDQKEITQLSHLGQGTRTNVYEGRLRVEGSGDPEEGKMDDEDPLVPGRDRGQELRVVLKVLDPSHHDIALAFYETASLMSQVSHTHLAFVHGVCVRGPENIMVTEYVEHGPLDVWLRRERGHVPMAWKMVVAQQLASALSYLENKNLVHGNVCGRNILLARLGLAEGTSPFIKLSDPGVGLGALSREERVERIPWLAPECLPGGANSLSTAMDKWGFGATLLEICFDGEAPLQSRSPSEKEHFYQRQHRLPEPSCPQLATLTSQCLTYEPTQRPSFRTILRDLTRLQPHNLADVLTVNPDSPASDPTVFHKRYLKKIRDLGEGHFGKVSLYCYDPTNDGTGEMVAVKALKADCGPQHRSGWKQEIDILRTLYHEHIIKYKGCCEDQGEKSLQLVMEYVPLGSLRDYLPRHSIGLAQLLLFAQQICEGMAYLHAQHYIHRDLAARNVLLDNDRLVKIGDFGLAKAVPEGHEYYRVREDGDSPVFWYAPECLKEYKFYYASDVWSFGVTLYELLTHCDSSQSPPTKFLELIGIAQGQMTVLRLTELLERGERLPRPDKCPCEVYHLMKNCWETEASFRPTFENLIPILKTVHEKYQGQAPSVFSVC
As to the kind of experiment: Anti-proliferative assay, Ba/F3-TEL-TYK2 cells (Cell-Titer Glo). The class given is cell-based. The settings on record: 72 h, read-out: BaF3-TEL-TYK2 IC50. How it is done:
as §1

Data set [1] has as its target T3, Ba/F3-FL-TYK2-P760L cells (Homo sapiens, UniProt P29597, P760L, cells depend on it).
T3 construct: BaF3-FL-T2P760L (nM)
Briefly: Anti-proliferative assay, Ba/F3-FL-TYK2-P760L cells (Cell-Titer Glo). The data set is classed as cell-based. The settings on record: 72 h, read-out: BaF3-FL-T2P760L IC50. The procedure, abridged: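 Compound exposure ran 72 h at 37 °C in 5% CO2 across nine 3-fold concentrations from a 20 μM top dose, added 24 h after seeding 2000 cells/well.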

The target of another data set is T4, JAK2 (Homo sapiens, UniProt O60674).
T4 construct: purchased Carna Biosciences
T4 sequence (O60674 whole entry): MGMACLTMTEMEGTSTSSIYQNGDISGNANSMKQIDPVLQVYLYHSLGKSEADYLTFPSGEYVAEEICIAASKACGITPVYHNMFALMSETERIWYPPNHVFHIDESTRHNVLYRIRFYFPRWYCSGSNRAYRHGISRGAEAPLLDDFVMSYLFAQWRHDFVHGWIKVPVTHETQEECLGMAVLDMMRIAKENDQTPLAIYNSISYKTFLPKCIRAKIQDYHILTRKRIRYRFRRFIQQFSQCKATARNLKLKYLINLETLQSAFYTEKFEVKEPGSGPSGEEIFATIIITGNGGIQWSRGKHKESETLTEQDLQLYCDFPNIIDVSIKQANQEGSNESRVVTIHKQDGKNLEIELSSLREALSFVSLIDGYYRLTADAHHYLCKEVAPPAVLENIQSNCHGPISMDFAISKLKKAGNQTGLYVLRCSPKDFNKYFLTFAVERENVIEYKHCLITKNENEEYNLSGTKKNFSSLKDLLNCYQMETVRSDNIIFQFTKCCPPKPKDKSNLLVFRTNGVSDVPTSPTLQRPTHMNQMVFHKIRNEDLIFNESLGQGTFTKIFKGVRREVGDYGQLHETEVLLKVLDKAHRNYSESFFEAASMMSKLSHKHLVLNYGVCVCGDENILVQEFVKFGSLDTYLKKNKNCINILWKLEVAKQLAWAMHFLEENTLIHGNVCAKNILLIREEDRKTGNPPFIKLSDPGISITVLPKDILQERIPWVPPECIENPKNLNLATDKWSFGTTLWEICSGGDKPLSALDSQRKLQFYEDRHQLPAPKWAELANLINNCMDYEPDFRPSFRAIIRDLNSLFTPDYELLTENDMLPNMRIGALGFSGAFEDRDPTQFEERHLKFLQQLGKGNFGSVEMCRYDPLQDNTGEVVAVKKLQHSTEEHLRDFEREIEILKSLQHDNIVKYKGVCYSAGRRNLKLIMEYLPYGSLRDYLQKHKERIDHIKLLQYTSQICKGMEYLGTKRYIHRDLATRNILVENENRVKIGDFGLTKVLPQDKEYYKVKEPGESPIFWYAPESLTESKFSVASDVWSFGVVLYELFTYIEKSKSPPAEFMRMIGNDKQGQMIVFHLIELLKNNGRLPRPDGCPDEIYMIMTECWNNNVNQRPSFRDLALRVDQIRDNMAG
Briefly: JAK2 kinase activity, microfluidic assay (Caliper EZ Reader II). The class given is biochemical. To be noted: JAK2 0.125 nM, 1 mM ATP. How it is done:
(§2) Testing for JAK1, JAK2 and TYK2 Kinase Activities
(§3) JAK activity was determined in the reaction buffer 50 mM HEPES, 0.01% Brij35, 10 mM MgCl2, 2 mM DTT by a microfluidic assay. The phosphorylation of a FAM labeled peptide substrate was monitored in the Caliper EZ Reader II (Perkin Elmer). The assay condition for each batch of enzyme (Carna Biosciences) was optimized to obtain 10% conversion rate of peptide substrate.
(§4) The test compounds were dissolved in DMSO to a stock concentration of 10 mM. Three-fold serially diluted compounds with top concentration of 5 μM were pre-incubated with JAK1, JAK2 or TYK2 for 10 min at ambient temperature. The final DMSO concentration of assay mixture was 1%. […] The reaction was stopped by adding 50 mM EDTA.
(§5) The percent inhibition was calculated by the following formula:
(§6) [formula] • wherein • Conversion %_max=the conversion rate in the positive well without addition of compound • Conversion %_sample=the conversion rate of test compounds • Conversion %_min=the conversion rate in the well without addition of enzyme
(§7) The dose-response (percent inhibition) curve was plotted and IC50 values were determined by GraphPad software.

The target of another data set is T5, JAK1 (Homo sapiens, UniProt P23458).
T5 construct: purchased Carna Biosciences
T5 sequence (P23458 whole entry): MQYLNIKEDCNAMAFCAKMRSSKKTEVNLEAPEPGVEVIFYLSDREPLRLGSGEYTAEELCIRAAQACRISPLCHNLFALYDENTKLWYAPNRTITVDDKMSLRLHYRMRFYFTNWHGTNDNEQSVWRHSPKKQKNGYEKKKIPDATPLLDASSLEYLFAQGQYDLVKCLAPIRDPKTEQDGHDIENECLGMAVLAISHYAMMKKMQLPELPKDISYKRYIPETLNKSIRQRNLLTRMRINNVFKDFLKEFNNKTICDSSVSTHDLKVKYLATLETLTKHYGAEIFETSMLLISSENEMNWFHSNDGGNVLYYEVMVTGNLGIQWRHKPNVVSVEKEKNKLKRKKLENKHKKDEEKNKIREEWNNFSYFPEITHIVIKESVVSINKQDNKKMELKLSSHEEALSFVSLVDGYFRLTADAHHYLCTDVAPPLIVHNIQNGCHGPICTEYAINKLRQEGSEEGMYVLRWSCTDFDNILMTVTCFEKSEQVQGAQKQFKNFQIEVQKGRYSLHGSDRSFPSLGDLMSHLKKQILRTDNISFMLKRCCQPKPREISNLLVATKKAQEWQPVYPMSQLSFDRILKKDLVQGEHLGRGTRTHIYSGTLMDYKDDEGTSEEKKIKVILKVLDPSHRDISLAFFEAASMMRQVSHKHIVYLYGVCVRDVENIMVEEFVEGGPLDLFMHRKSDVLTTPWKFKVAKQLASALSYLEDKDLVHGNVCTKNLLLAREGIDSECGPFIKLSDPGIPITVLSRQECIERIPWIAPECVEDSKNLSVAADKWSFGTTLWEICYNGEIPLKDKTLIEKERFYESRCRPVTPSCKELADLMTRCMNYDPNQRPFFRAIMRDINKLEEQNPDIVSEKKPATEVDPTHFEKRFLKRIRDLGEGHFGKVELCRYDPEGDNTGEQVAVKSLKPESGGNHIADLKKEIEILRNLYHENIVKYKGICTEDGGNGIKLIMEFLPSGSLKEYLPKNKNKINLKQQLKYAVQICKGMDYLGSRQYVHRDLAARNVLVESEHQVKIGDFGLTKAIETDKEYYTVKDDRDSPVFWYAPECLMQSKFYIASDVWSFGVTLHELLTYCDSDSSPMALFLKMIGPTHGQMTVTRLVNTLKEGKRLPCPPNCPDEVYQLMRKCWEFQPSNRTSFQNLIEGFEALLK
Briefly: JAK1 kinase activity, microfluidic assay (Caliper EZ Reader II). The data set is classed as biochemical. To be noted: JAK1 5 nM, 1 mM ATP. How it is done:
as §2, §3, §4, §5, §6, §7

A short description of data set [2]: Microsomal metabolic stability assay. The class given is in vitro ADME. To be noted: pH 7.4, 0.5 mg/mL protein, 1 μM compound. The procedure, abridged: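 Parent loss was tracked by LC/MS/MS at 0, 5, 15, 30 and 45 min, with half-life derived from the ln(% remaining)–time slope. Incubation at 37 °C, pH 7.4 phosphate/EDTA buffer: 0.5 mg/mL microsomes, 1 μM compound, NADPH-regenerated (2 mM).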

A further data set concerns the target T6, TYK2 (Homo sapiens, UniProt P29597).
T6 construct: purchased Carna Biosciences
As to the kind of experiment: TYK2 kinase activity, microfluidic assay (Caliper EZ Reader II). The class given is biochemical. The settings on record: TYK2 1 nM, 1 mM ATP. Here is the method: as §2, §3, §4, §5, §6, §7

[3] abbreviates: dog liver microsomes, read-out: Dog LM Clint.
The mark [4] stands for this setting: dog liver microsomes, read-out: Dog LM T½.
Where [5] appears, read: human liver microsomes, read-out: Human LM Clint.
The mark [6] stands for this setting: human liver microsomes, read-out: Human LM T½.
The mark [7] stands for this setting: rat liver microsomes, read-out: Rat LM Clint.
The mark [8] stands for this setting: rat liver microsomes, read-out: Rat LM T½.

T1 sequence (O60674 whole entry, change not shown, the tested form may be a part): as the sequence (O60674 whole entry) above
T6 sequence (P29597 whole entry): as the sequence (P29597 whole entry, change not shown, the tested form may be a part) above
T3 sequence (P29597 whole entry P760L): as the sequence (P29597 whole entry, change not shown, the tested form may be a part) above, with P760L counted along it

On to `[2H]C([2H])([2H])NC(=O)c1cnc(Nc2ccc(Cl)cc2)nc1Nc1cccc(-c2ncn(C)n2)c1OC` [Example 3, 2-((4-Chlorophenyl)amino)-4-((2-methoxy-3-(1-methyl-1H-1,2,4-triazol-3-yl)phenyl)amino)-N-(methyl-d3) pyrimidine-5-carboxamide], for which the GI50 on Ba/F3-TEL-JAK2 cells was 2.3 µM; on Ba/F3-TEL-TYK2 cells it was 5.44 µM; in data set [1] it was 0.0707 µM.

On to `CCC(=O)c1cnc(Nc2ccc(F)cc2)nc1Nc1cccc(-c2ncn(C)n2)c1OC` [Example 8, 1-(2-((4-Fluorophenyl)amino)-4-((2-methoxy-3-(1-methyl-1H-1,2,4-triazol-3-yl)phenyl)amino)pyrimidin-5-yl)propan-1-one], for which the GI50 at Ba/F3-TEL-JAK2 cells is 7.47 µM; on Ba/F3-TEL-TYK2 cells, more than 20 µM; in data set [1] it was 0.157 µM.

By IC50 is commonly meant the concentration that inhibits the measured activity by half. Regarding `CCn1ccc2c(c(Nc3cc(Nc4ccc(F)cn4)ncc3C(=O)NC)cn2C)c1=O` [Example 10, 4-((5-Ethyl-1-methyl-4-oxo-4,5-dihydro-1H-pyrrolo[3,2-c]pyridin-3-yl)amino)-6-((5-fluoropyridin-2-yl)amino)-N-methylnicotinamide], the half-inhibitory concentration (IC50) at JAK2, against JAK1 and on TYK2 was more than 5 µM in each case. For the same molecule, the GI50 at Ba/F3-TEL-JAK2 cells is 3.73 µM; on Ba/F3-TEL-TYK2 cells it was 4.03 µM; in data set [1], 0.0545 µM. In addition, the values for the microsomal CLint at 1 μM in data set [2] (setting [3]), in data set [2] (setting [5]) and in data set [2] (setting [7]) were 27.1 µL/min/mg, 88.3 µL/min/mg and 137 µL/min/mg, respectively. The half-life at 1 μM in data set [2] (setting [4]) stood at 2.13 h; in data set [2] (setting [6]), 0.654 h; in data set [2] (setting [8]), 0.422 h.

In the case of `CNC(=O)c1cnc(NC(=O)C2CC2)cc1Nc1cn(C)c2c(F)cn(C)c(=O)c12` [Example 14, 6-(Cyclopropanecarboxamido)-4-((7-fluoro-1,5-dimethyl-4-oxo-4,5-dihydro-1H-pyrrolo[3,2-c]pyridin-3-yl)amino)-N-methylnicotinamide], the IC50 at JAK2, against JAK1 and against TYK2 was more than 5 µM in each case. Besides, the GI50 on Ba/F3-TEL-JAK2 cells was more than 20 µM; on Ba/F3-TEL-TYK2 cells it was more than 20 µM; in data set [1], 0.33 µM. Besides, the microsomal CLint at 1 μM in data set [2] (setting [3]) worked out at 6.43 µL/min/mg; in data set [2] (setting [5]) it was 23.6 µL/min/mg; in data set [2] (setting [7]) it was 101 µL/min/mg. In addition, the half-life at 1 μM came to 3.59 h in data set [2] (setting [4]), 0.98 h in data set [2] (setting [6]) and 0.228 h in data set [2] (setting [8]).

Regarding `CNC(=O)c1cnc(Nc2ccc(F)cn2)cc1Nc1csc2ccn(C)c(=O)c12` [Example 15, 6-((5-Fluoropyridin-2-yl)amino)-N-methyl-4-((5-methyl-4-oxo-4,5-dihydrothieno[3,2-c]pyridin-3-yl)amino)nicotinamide], the values for the GI50 (at Ba/F3-TEL-JAK2 cells; at Ba/F3-TEL-TYK2 cells; in data set [1]) were more than 20 µM, more than 20 µM and 0.0236 µM, respectively.

Consider `CCn1ccc2scc(Nc3cc(Nc4ccc(F)cn4)ncc3C(=O)NC)c2c1=O` [Example 18, 4-((5-Ethyl-4-oxo-4,5-dihydrothieno[3,2-c]pyridin-3-yl)amino)-6-((5-fluoropyridin-2-yl)amino)-N-methylnicotinamide], for which the IC50 at JAK2, on JAK1 and against TYK2 was more than 5 µM in each case. Further, the GI50 at Ba/F3-TEL-JAK2 cells is more than 20 µM; at Ba/F3-TEL-TYK2 cells it was more than 20 µM; in data set [1], 0.0484 µM.

Consider `[2H]C([2H])([2H])NC(=O)c1cnc(Nc2ccc(F)cc2)nc1Nc1cccc(-c2ncn(C)n2)c1OC` [Example 20, 2-(4-Fluoroanilino)-4-[2-methoxy-3-(1-methyl-1,2,4-triazol-3-yl)anilino]-N-(trideuteriomethyl)pyrimidine-5-carboxamide], for which the IC50 at JAK2 is 0.173 µM; on JAK1, more than 5 µM; against TYK2 it was more than 5 µM. The GI50 on Ba/F3-TEL-JAK2 cells was 1.18 µM; on Ba/F3-TEL-TYK2 cells it was 2.53 µM; in data set [1] it was 0.078 µM. Besides, the microsomal CLint at 1 μM was found to be 101 µL/min/mg in data set [2] (setting [3]), 13.3 µL/min/mg in data set [2] (setting [5]) and 45.7 µL/min/mg in data set [2] (setting [7]). Moreover, the results for the half-life at 1 μM in data set [2] (setting [4]), in data set [2] (setting [6]) and in data set [2] (setting [8]) were 0.572 h, 4.36 h and 1.26 h, respectively.

For `[2H]C([2H])([2H])NC(=O)c1cnc(Nc2ccc(C#N)cc2)nc1Nc1cccc(-c2ncn(C)n2)c1OC` [Example 28, 2-((4-Cyanophenyl)amino)-4-((2-methoxy-3-(1-methyl-1H-1,2,4-triazol-3-yl)phenyl)amino)-N-(methyl-d3) pyrimidine-5-carboxamide], the values for the GI50 (at Ba/F3-TEL-JAK2 cells; at Ba/F3-TEL-TYK2 cells; in data set [1]) were more than 20 µM, more than 20 µM and 0.065 µM, respectively. Further, the values for the microsomal CLint at 1 μM in data set [2] (setting [3]), in data set [2] (setting [5]) and in data set [2] (setting [7]) were 4.77 µL/min/mg, 2.46 µL/min/mg and 14.3 µL/min/mg, respectively. Further, the values for the half-life at 1 μM in data set [2] (setting [4]), in data set [2] (setting [6]) and in data set [2] (setting [8]) were 4.84 h, 9.39 h and 1.61 h, respectively.

Consider `CNC(=O)c1cnc2cc1Nc1cc(cc(-c3ncn(C)n3)c1OC)COCc1cccc(n1)N2` [Example 34, 10-Methoxy-N-methyl-11-(1-methyl-1,2,4-triazol-3-yl)-15-oxa-2,4,8,21-tetrazatetracyclo[15.3.1.13,7.19,13]tricosa-1(21),3(23),4,6,9,11,13(22),17,19-nonaene-6-carboxamide], for which the results for the GI50 (on Ba/F3-TEL-JAK2 cells; at Ba/F3-TEL-TYK2 cells; in data set [1]) were 4.35 µM, 7.18 µM and 0.125 µM, respectively.

Take `CNC(=O)c1nnc2cc1Nc1cc(cc(-c3ncn(C)n3)c1OC)COCc1cccc(n1)N2` [Example 35, 10-Methoxy-N-methyl-11-(1-methyl-1H-1,2,4-triazol-3-yl)-15-oxa-2,4,5,8,21-pentaazatetracyclo[15.3.1.1^{3,7}.1^{9,13}]tricosa-1(21),3,5,7(23),9(22),10,12,17,19-nonaene-6-carboxamide]: the concentration for half-maximal inhibition (IC50) on JAK2, against JAK1 and at TYK2 was more than 5 µM throughout. Moreover, the results for the GI50 (at Ba/F3-TEL-JAK2 cells; on Ba/F3-TEL-TYK2 cells; in data set [1]) were 0.789 µM, more than 20 µM and 0.0482 µM, respectively. Moreover, the values for the microsomal CLint at 1 μM in data set [2] (setting [3]), in data set [2] (setting [5]) and in data set [2] (setting [7]) were less than 18.6 µL/min/mg, 21.2 µL/min/mg and 63.8 µL/min/mg, respectively. In addition, the values for the half-life at 1 μM in data set [2] (setting [4]), in data set [2] (setting [6]) and in data set [2] (setting [8]) were more than 3.1 h, 2.72 h and 0.905 h, respectively.

`CNC(=O)c1cnc2nc1Nc1cc(cc(-c3ncn(C)n3)c1OC)COCc1cc(ccc1F)N2` [Example 36, 18-Fluoro-10-methoxy-N-methyl-11-(1-methyl-1H-1,2,4-triazol-3-yl)-15-oxa-2,4,8,23-tetraazatetracyclo[15.3.1.1^{3,7}.1^{9,13}]tricosa-1(20),3,5,7(23),9(22),10,12,17(21),18-nonaene-6-carboxamide]: the GI50 at Ba/F3-TEL-JAK2 cells was found to be 0.892 µM; at Ba/F3-TEL-TYK2 cells, 1.96 µM; in data set [1], 0.173 µM.
